PubChem BioAssay (NCI)
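Interpolation was linear, between the two tested concentrations surrounding the appropriate level; five concentrations were tested over 48 hours in 96-well plates. Here, GI50 denotes the concentration required for 50% inhibition of growth. TGI: concentration producing complete growth inhibition.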

What follows are compounds tested on MDA-MB-468 breast (assay: inhibition of tumour cell growth, NCI panel, 48 h).

Which results are given for CCC(C)(C)C(=O)O[C@H]1C[C@@H](C)C=C2C=C[C@H](C)[C@H](CC[C@@H]3C[C@@H](O)CC(=O)O3)[C@H]21?
GI50: 1620 nM; TGI: 6680 nM

What does the source list for CCOc1c(Br)cc(C2C(C(=O)OC)=CN(C)C=C2C(=O)OC)cc1OC?
GI50: 37700 nM; TGI: > 100000 nM

Which GI50 does the source give for COc1ccccc1OCC(=O)Nc1sc2c(c1C(N)=O)CCC2 here?
Its GI50 is over 100000 nM.

And the TGI?
The TGI was over 100000 nM.

Which GI50 does the source give for O=[N+]([O-])c1ccc(Br)c([N+](=O)[O-])c1 here?
The GI50 was 1670 nM.

What about the TGI of the same compound?
Its TGI is 3270 nM.

Which results are given for C[n+]1c(/C=C\c2ccc(Cl)cc2)ccc2ccccc21?
GI50: 2360 nM; TGI: 8370 nM

Which results are given for COc1cc(-c2nc(Nc3nc4ccccc4[nH]3)nc(N)c2C#N)cc(OC)c1OC?
GI50: 1390 nM; TGI: 26600 nM

What does the source list for COc1ccc(N(CC(=O)NCCC[Te]c2ccccc2)C(=O)c2ccccc2)cc1?
GI50: 4240 nM; TGI: 17600 nM

How did the GI50 turn out when C1=Cc2ccccc2Nc2ccccc21 was run?
Its GI50 is 4360 nM.

What about the TGI of the same compound?
The TGI was 33700 nM.

COc1ccc2nc(-c3cc(-c4cc(OC)c(OC)c(OC)c4)n[nH]3)[nH]c2c1 was tested. Which GI50 did it give?
Its GI50 is 388 nM.

And the TGI?
The TGI was 4960 nM.

For O=c1c2cccc(Cl)c2sc2c(NCCCNCCO)nc3ccccc3c12, which GI50 is on record?
The GI50 was 1190 nM.

And the TGI?
The TGI was 2980 nM.

With O=C1NN(c2ccc(C(=O)O)cc2)C(=O)/C1=C\c1ccc([N+](=O)[O-])o1 as the compound, how does the GI50 read?
The GI50 was 22500 nM.

What about the TGI of the same compound?
The TGI was 57400 nM.

How did the GI50 turn out when O=c1cc(-c2ccccc2)[nH]c2cc(F)c(F)cc12 was run?
Its GI50 is 384 nM.

And the TGI?
Its TGI is over 100000 nM.

How did the GI50 turn out when COc1cc(C(=O)c2ccc3c(c2)OCO3)cc(OC)c1OC was run?
Its GI50 is 586 nM.

And the TGI?
The TGI was 3320 nM.

COc1cccc(C2c3cc4c(cc3OC(C)(O)C2C)OCO4)c1O (configuration not stated) was tested. Which GI50 did it give?
Its GI50 is 4830 nM.

And the TGI?
The TGI was 56600 nM.

Which results are given for C=C1C(=O)O[C@H]2[C@H]1CC/C(COC(=O)CCCCC(=O)OC/C1=C/CC[C@@]3(C)O[C@H]3[C@H]3OC(=O)C(=C)[C@@H]3CC1)=C\CC[C@@]1(C)O[C@@H]21?
GI50: 1660 nM; TGI: 5110 nM

How did the GI50 turn out when Cn1ccnc1C(=O)/C=C/c1ccc(C(=O)Nc2ccc(Cl)cc2)cc1 was run?
Its GI50 is 793 nM.

And the TGI?
The TGI was 2800 nM.

Which GI50 does the source give for CCN(CC)CCCC(C)Nc1cnc(C(=O)Nc2ccc(Cl)c3cccnc23)cn1 (configuration not stated) here?
Its GI50 is 1570 nM.

And the TGI?
Its TGI is 3490 nM.

How did the GI50 turn out when COc1cc2nc(-c3cnc(N(C)C)nc3)nc(NC3CCN(Cc4ccccc4)CC3)c2cc1OC was run?
Its GI50 is 1380 nM.

And the TGI?
Its TGI is 2960 nM.

Which GI50 does the source give for N#C/C(=C\c1ccc(-c2ccc(Cl)cc2)o1)C(=O)Nc1ncc(Cc2ccc(Cl)cc2)s1 here?
The GI50 was 2380 nM.

And the TGI?
Its TGI is 6490 nM.

What does the source list for CCOc1cccc(/C=N/NC(=O)c2ccc(Nc3ccnc(C(F)(F)F)c3)cc2)c1O?
GI50: 349 nM; TGI: 2960 nM

What does the source list for c1ccc(Cn2cc3c(c2-c2ccccc2)CCc2cnoc2-3)cc1?
GI50: 2060 nM; TGI: 8020 nM

O=C1CC(c2ccc(N3CCOCC3)cc2)(c2ccsc2)NC(=O)C1Sc1ccccc1Cl (configuration not stated) was tested. Which GI50 did it give?
Its GI50 is 86700 nM.

And the TGI?
Its TGI is over 100000 nM.

How did the GI50 turn out when Cn1nccc1Nc1nccc(-c2cc3c(s2)C(C)(C)N(CCN2CCOCC2)C3=O)n1 was run?
The GI50 was 6100 nM.

And the TGI?
Its TGI is over 83500 nM.

What does the source list for COc1ccc2c(c1)C(=O)/C(=C/c1cccc(OCC(=O)Nc3nc4c(s3)CCCC4)c1)O2?
GI50: 188 nM; TGI: 353 nM

With Cc1nn(-c2nc3ccccc3s2)c(C)c1Oc1ccccc1O as the compound, how does the GI50 read?
The GI50 was 1130 nM.

And the TGI?
The TGI was 27400 nM.

With CC[C@H](C)[C@H]1NC(=O)[C@@H](N[C@](C)(O)[C@@H](N)CC(C)C)[C@@H](C)OC(=O)[C@H](Cc2ccc(OC)cc2)N(C)C(=O)[C@@H]2CCCN2C(=O)[C@H](CC(C)C)NC(=O)[C@@H](C)C(=O)[C@H](C(C)C)OC(=O)C[C@@H]1O as the compound, how does the GI50 read?
The GI50 was 21.7 nM.

And the TGI?
The TGI was 261 nM.

Cn1cc(-c2nc(-c3c[nH]c4ncccc34)cs2)c2cc(F)ccc21 was tested. Which GI50 did it give?
Its GI50 is 69 nM.

What about the TGI of the same compound?
The TGI was 725 nM.

For Cc1cc(N2CCCCC2)nc(N(CCCNc2ccnc3cc(Cl)ccc23)Cc2ccco2)n1, which GI50 is on record?
The GI50 was 1720 nM.

And the TGI?
The TGI was 3870 nM.

For CC(C)(C)NC(C1=CC(C)(C)c2ccccc2C1=O)c1ccccc1 (configuration not stated), which GI50 is on record?
The GI50 was 245 nM.

What about the TGI of the same compound?
The TGI was 1660 nM.

COc1cc(NS(C)(=O)=O)ccc1Nc1c2ccc(Cl)cc2nc2c(OC)cccc12 was tested. Which GI50 did it give?
The GI50 was 136 nM.

And the TGI?
The TGI was 484 nM.

Which GI50 does the source give for C/C=C(\C)C(=O)N[C@H]1CC[C@]2(C)C3CC[C@@]4(C)C(CC[C@@H]4C(C)N(C)C)C3CCC2[C@H]1OC(C)=O (some centres not stated) here?
Its GI50 is 1170 nM.

What about the TGI of the same compound?
Its TGI is 2630 nM.
